In PMC9865645, “The Impact of N^ε-Acryloyllysine Piperazides on the Conformational Dynamics of Transglutaminase 2” (International Journal of Molecular Sciences, 2023):

Biological target: T1, commercial His6-hTGase 2 (Homo sapiens, UniProt P21980)
T1 construct: purchased Zedira (Darmstadt, Germany) T022, lot 0716a
T1 sequence (P21980 1-687): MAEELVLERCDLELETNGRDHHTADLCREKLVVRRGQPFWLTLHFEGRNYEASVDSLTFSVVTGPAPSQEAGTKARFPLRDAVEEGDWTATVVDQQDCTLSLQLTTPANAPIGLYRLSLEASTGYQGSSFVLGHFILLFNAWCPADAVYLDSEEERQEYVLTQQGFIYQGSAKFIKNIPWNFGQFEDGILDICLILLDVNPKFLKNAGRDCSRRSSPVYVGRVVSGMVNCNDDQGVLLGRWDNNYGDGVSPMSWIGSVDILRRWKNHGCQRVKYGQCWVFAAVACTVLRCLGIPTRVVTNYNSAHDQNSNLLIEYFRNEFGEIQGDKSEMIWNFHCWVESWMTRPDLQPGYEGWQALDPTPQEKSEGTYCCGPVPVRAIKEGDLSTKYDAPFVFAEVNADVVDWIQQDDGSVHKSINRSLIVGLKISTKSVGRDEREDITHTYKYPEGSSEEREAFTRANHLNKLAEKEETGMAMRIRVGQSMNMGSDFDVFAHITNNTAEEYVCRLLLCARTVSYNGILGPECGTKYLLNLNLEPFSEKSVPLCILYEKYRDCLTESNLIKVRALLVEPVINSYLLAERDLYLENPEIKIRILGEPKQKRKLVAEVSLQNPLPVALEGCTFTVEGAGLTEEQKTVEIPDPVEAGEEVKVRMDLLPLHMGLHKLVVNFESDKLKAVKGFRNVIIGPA
Experiment: fluorescence anisotropy (FA)-based transamidase activity assay, commercial His6-hTGase 2
Assay type: biochemical
Experimental: For the analysis of inhibitor 1 on self-produced hTGase 2, 2 µg/mL of the enzyme was used to guarantee comparability with the value reported by Wodtke et al., whereas all other experiments were performed with 5 µg/mL of either commercial or self-produced hTGase 2 (corresponding to 64.1 and 61.6 nM, respectively, when assuming 100% active protein). Parallel and perpendicular fluorescence intensities were measured over 1190 s in 35 s intervals (1) or over 1776 s in 48 s intervals (2, 3) and used to calculate the FA. Data of FA for the first 875 s (1) or 384 s (2, 3) were analyzed by linear regression, with slopes corresponding to enzymatic rates. Rates in the presence of inhibitor were normalized by dividing them by the respective rate in the absence of inhibitor, and normalized rates were analyzed according to Equation (S29) in Supplementary Materials to calculate values of IC50. Data analysis was performed with Microsoft Excel (Microsoft Office Professional Plus 2016, Microsoft® Corporation, USA) and GraphPad Prism version 5.03 or version 6.07 for Windows (GraphPad Software, La Jolla, CA, USA).

In the case of `C=CC(=O)NCCCC[C@H](NC(=O)Cc1ccccc1I)C(=O)N1CCN(c2ccc([N+](=O)[O-])nc2)CC1` [Compound 2, N^α-(2-Iodophenylacetyl)-N^ε-acryloyl-L-lysin-4-(2-nitropyridin-5-yl)piperazide], the IC50 (5 min pre-incubation of enzyme and inhibitor, mean (SEM) of three experiments) is reported as 154 nM, the IC50 (30 min pre-incubation, hTGase 2 (Zedira) 64.1 nM, mean (SEM)) is reported as 47.4 nM and the “ratio of the IC50 and the molar enzyme concentration” value (FA assay, 30 min pre-incubation, range over in-house and commercial hTGase 2) is reported as 0.57–0.74. The IC50 (FA assay, 30 min pre-incubation, range over in-house and commercial hTGase 2 (62–64 nM)) was 35 to 47 nM.
